Results as given in ChEMBL document CHEMBL1201862, “PubChem BioAssay data set” (2004).
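96-well plates; 48 h exposure; 5 concentrations. Endpoints by linear interpolation between flanking doses. Not reached: highest tested concentration assigned. GI50 is the concentration that inhibits growth by half.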 Activity calls are given as the source filed them. No stated cut-off is given here; in the data, active = GI50 up to about 1.1 µM and inactive = higher.

Experiments:
Experiment in all cases: growth of human tumour cells (NCI), 48 h
COLO 205 = system: COLO 205
MCF7 = system: MCF7
SF-268 = system: SF-268
RXF 393 = system: RXF 393
MDA-MB-231 = system: MDA-MB-231
M14 = system: M14
SK-OV-3 = system: SK-OV-3
SK-MEL-28 = system: SK-MEL-28
EKVX = system: EKVX
OVCAR-4 = system: OVCAR-4
SNB-75 = system: SNB-75
SN12C = system: SN12C
HOP-62 = system: HOP-62
UACC-257 = system: UACC-257
SNB-19 = system: SNB-19
Malme-3M = system: Malme-3M
CAKI-1 = system: CAKI-1
OVCAR-8 = system: OVCAR-8
HT-29 = system: HT-29
NCI-H23 = system: NCI-H23

Measured: GI50

COc1cc(-c2cc(=O)c3c(OC)c(OC)c(OC)c(OC)c3o2)c(OC)c(OC)c1OC
inactive: COLO 205 45.8 µM | MCF7 47.2 µM | SF-268 63.1 µM | RXF 393 28.6 µM | MDA-MB-231 24.3 µM | M14 51.5 µM | SK-OV-3 76.7 µM | SK-MEL-28 42.5 µM | EKVX 66.8 µM | OVCAR-4 30.7 µM | SNB-75 16.4 µM | SN12C 35.2 µM | HOP-62 > 100 µM | UACC-257 42.3 µM | SNB-19 98.6 µM | Malme-3M 23.8 µM | CAKI-1 27.5 µM | OVCAR-8 28.6 µM | HT-29 31 µM

Cc1cccc2c(=O)c3c(O)cc(O)cc3n(C)c12
inactive: COLO 205 > 100 µM | MCF7 > 100 µM | SF-268 > 100 µM | RXF 393 > 100 µM | MDA-MB-231 > 100 µM | M14 > 100 µM | SK-OV-3 > 100 µM | SK-MEL-28 > 100 µM | EKVX 7.41 µM | OVCAR-4 > 100 µM | NCI-H23 > 100 µM | SNB-75 85.7 µM | SN12C > 100 µM | HOP-62 > 100 µM | UACC-257 > 100 µM | SNB-19 > 100 µM | Malme-3M > 100 µM | CAKI-1 > 100 µM | OVCAR-8 > 100 µM | HT-29 > 100 µM

OC(C1=C/C(=C\c2ccncc2)c2ccccc21)c1ccncc1 (centres undefined)
inactive: COLO 205 14.5 µM | MCF7 9.86 µM | SF-268 18.5 µM | RXF 393 14 µM | MDA-MB-231 6.98 µM | M14 12.4 µM | SK-OV-3 13.8 µM | SK-MEL-28 14.3 µM | EKVX 5.65 µM | OVCAR-4 12.4 µM | NCI-H23 12.4 µM | SNB-75 5.85 µM | SN12C 13.9 µM | HOP-62 10.2 µM | UACC-257 6.34 µM | SNB-19 19.1 µM | Malme-3M 15.1 µM | CAKI-1 7.83 µM | OVCAR-8 22.2 µM | HT-29 11.8 µM

Cc1c(C)c(C)c(-n2c(=O)n(C)c(=O)n2-n2c(=O)n(C)c(=O)n2-c2c(C)c(C)c(C)c(C)c2C)c(C)c1C
inactive: COLO 205 > 100 µM | MCF7 > 100 µM | SF-268 > 100 µM | RXF 393 > 100 µM | MDA-MB-231 > 100 µM | M14 > 100 µM | SK-OV-3 > 100 µM | SK-MEL-28 > 100 µM | EKVX > 100 µM | OVCAR-4 > 100 µM | SNB-75 > 100 µM | SN12C > 100 µM | UACC-257 > 100 µM | SNB-19 > 100 µM | Malme-3M > 100 µM | CAKI-1 > 100 µM | OVCAR-8 > 100 µM | HT-29 > 100 µM

Cc1c2c(OCCN3CCCCC3)nn(C)c(=O)c2c(C)n1-c1ccccc1
inactive: COLO 205 17.7 µM | MCF7 25.5 µM | SF-268 53.1 µM | RXF 393 33.4 µM | MDA-MB-231 32.4 µM | M14 18.5 µM | SK-OV-3 56.1 µM | SK-MEL-28 25.9 µM | EKVX 50.6 µM | OVCAR-4 63.8 µM | NCI-H23 28.1 µM | SNB-75 19.5 µM | SN12C 56.1 µM | HOP-62 > 100 µM | UACC-257 22.1 µM | SNB-19 77.1 µM | Malme-3M 19.1 µM | CAKI-1 32.9 µM | OVCAR-8 74.8 µM | HT-29 30.9 µM

COC(=O)[C@@H](NC(=O)N(CCC#N)CCCN(C(=O)N[C@H](Cc1ccccc1)C(=O)OC)c1ccccc1)C(C)C
inactive: COLO 205 > 100 µM | MCF7 > 100 µM | SF-268 84.1 µM | RXF 393 95.9 µM | MDA-MB-231 > 100 µM | M14 > 100 µM | SK-OV-3 > 100 µM | SK-MEL-28 34.3 µM | EKVX > 100 µM | OVCAR-4 50.4 µM | NCI-H23 > 100 µM | SNB-75 > 100 µM | SN12C > 100 µM | HOP-62 > 100 µM | UACC-257 29.2 µM | SNB-19 > 100 µM | Malme-3M 28.1 µM | CAKI-1 > 100 µM | OVCAR-8 > 100 µM

CC1(C)NC(C(=O)c2ccccc2)=[N+]([O-])C1(O)c1ccccc1 (centres undefined)
inactive: COLO 205 > 100 µM | MCF7 > 100 µM | SF-268 > 100 µM | RXF 393 > 100 µM | MDA-MB-231 > 100 µM | M14 > 100 µM | SK-OV-3 > 100 µM | SK-MEL-28 > 100 µM | EKVX > 100 µM | OVCAR-4 > 100 µM | NCI-H23 > 100 µM | SNB-75 > 100 µM | SN12C > 100 µM | HOP-62 > 100 µM | UACC-257 54.5 µM | SNB-19 > 100 µM | Malme-3M > 100 µM | CAKI-1 > 100 µM | OVCAR-8 > 100 µM | HT-29 > 100 µM

CCN(CC)CCn1c2cc3c(cc2c(=O)c2cccnc21)OCO3
inactive: COLO 205 2.85 µM | MCF7 3.89 µM | SF-268 6.71 µM | RXF 393 5.86 µM | MDA-MB-231 4.44 µM | M14 4.95 µM | SK-OV-3 9.84 µM | SK-MEL-28 7.91 µM | EKVX 5.14 µM | OVCAR-4 5.36 µM | NCI-H23 8.75 µM | SNB-75 3.83 µM | SN12C 6.4 µM | HOP-62 3.61 µM | UACC-257 6.1 µM | SNB-19 8.07 µM | Malme-3M 4.84 µM | CAKI-1 9.14 µM | OVCAR-8 4.62 µM | HT-29 4.04 µM

Cc1cccc(Nc2cnc(N)nc2N)c1
inactive: COLO 205 > 100 µM | MCF7 > 100 µM | RXF 393 98.9 µM | MDA-MB-231 > 100 µM | M14 > 100 µM | SK-OV-3 > 100 µM | SK-MEL-28 > 100 µM | EKVX > 100 µM | OVCAR-4 > 100 µM | NCI-H23 > 100 µM | SNB-75 83 µM | SN12C > 100 µM | HOP-62 > 100 µM | UACC-257 > 100 µM | SNB-19 > 100 µM | Malme-3M > 100 µM | CAKI-1 > 100 µM | OVCAR-8 > 100 µM | HT-29 > 100 µM

CC(C)(C)OC(=O)N/N=C(/N)Cc1ccc(Cl)cc1
inactive: COLO 205 > 100 µM | MCF7 > 100 µM | SF-268 > 100 µM | RXF 393 > 100 µM | MDA-MB-231 > 100 µM | M14 > 100 µM | SK-OV-3 > 100 µM | SK-MEL-28 > 100 µM | EKVX > 100 µM | OVCAR-4 > 100 µM | SNB-75 > 100 µM | SN12C > 100 µM | HOP-62 > 100 µM | UACC-257 > 100 µM | SNB-19 > 100 µM | Malme-3M > 100 µM | CAKI-1 > 100 µM | OVCAR-8 > 100 µM | HT-29 73.1 µM
